Experimental data as given in patent US12116344B2, “Crystalline forms of a pharmaceutical compound” (Azafaros B.V., priority 2020, dated 2024).
Like-named read-outs stand apart in the source and are kept apart here.

Legend:
[1] = tested on: Hexb (−/−) mice; assay: Clinical signs in mice suffering from Sandhoff disease; format: in vivo; conditions: initial data
Description: Mice suffering from Sandhoff disease were administered a therapeutically effective amount of AZ-3102.

[2] = tested on: glucosylceramide C16:0 and C18:0; assay: Glucosylceramide levels in brain homogenate of NPC mice (HPLC-MS/MS); format: in vivo
Description: (§1) 24 NPC1 (−/−) mice (groups D to I) were treated per oral gavage (10 mL/kg) with AZ-3102-00 from post-natal day 11 (P11) to post-natal-day 70 (P70). Dosing will start at 1.5 mg/kg from P11 to P25, followed by 3 mg/kg from P26 to P70. Control mice included 6 NPC1 (−/−) and 4 NPC (+/−) mice treated with vehicle and 4 NPC (+/+) mice received AZ-3102-00 (groups A to C).
Brain tissues were homogenized in a solution of ultrapure water:methanol (1:1) with 0.1% formic acid (4 mL for each gram of tissue) using a FastPrep 24™ Microtube homogenizer. Tissues homogenates were then mixed for protein precipitation with a solution of acetonitrile:ultrapure water:methanol (90:5:5) containing 500 nM of GlcCer C17:0 and 0.1% formic acid. After a 5-min incubation at room temperature, the samples were centrifuged for 5 min (13000 rpm, 20° C.) and 50 μL of the supernatants were transferred into a siliconized MTP 96-well plate.
Concentrations of glucosylceramide C16:0 (GlcCer C16:0), glucosylceramide C18:0 (GlcCer C18:0), and glucosylceramide C24:1 (GlcCer C24:1) brain, samples were quantified by HPLC-MS/MS detection in the multiple-reaction-monitoring mode (MRM). Supernatants were analysed by HPLC-MS/MS while using a HALO HILIC column (150*4.6 mm, 2.7 μm) from Advanced Materials Technology for distinguishing between the galactosyl- and -glucosylceramide isomers. […] Analysis of GlcCer C16:0 and GlcCer C18:0 was performed using a gradient with mobile phase A: 5 mM Ammonium Acetate in 94.5% acetonitrile 2.5% Methanol, 2.5% ultrapure water and 0.5% formic acid and mobile phase B: ultrapure Water and 0.1% formic acid. The LLOQ in brain samples for GlcCer 16:0, GlcCer 18:0 and GlcCer 24:1 was […] tissue, respectively.

[3] = tested on: NPC (−/−) mice; assay: Clinical signs and tremor score in the Niemann-Pick type C mouse model; format: in vivo; conditions: for Overall clinical signs: scores PND 56-70
Description: Out of the 38 mice to be included in this study, there were 30 NPC (−/−) knock-out (KO) mice, 4 NPC (+/−) heterozygous mice and 4 NPC (+/+) wild-type (WT, Balb/c) mice. NPC1(−/−) mice have a premature truncation of the protein deleting 11 out of 13 transmembrane domains leaving the first two transmembrane domains intact. NPC1(−/−) mice homozygous for the recessive NIH allele of the Niemann Pick type C1 gene (Npc1 ml N) show a dual deficiency of sphingomyelinase and glucocerebrosidase activity (JAX #003092). Animals were bred on a BALB/c OlaHsd background.
as §1
Definitions of Clinical Scores and Humane Endpoints Clinical Signs were monitored on a daily basis starting at P45 until the end of the study (according to the template shown in FIG. 18). The parameters “weight loss”, “general health”, “clinical findings” and “line specific findings” were recorded and rated according to a score scale. The sum of this score was used for evaluation.
Pink (=light grey) bars represent the appearance and duration of a high level of tremor (sore of 5); whereas the green (=dark grey) bars represent the appearance and duration of a slight or moderate tremor. […] Possible tremor scores: 0: no tremor1: Slight incoordination, slight-moderate tremor; 5: High level of Tremor, uncoordinated movement; 10: Reduced righting reflex (no animal achieved this score).

[4] = Brain:plasma exposure after repeat oral administration PND 11-70; format: in vivo, mice; conditions: NPC1 (−/−) (Balb/c background), mouse, brain and plasma
Description: 24 NPC1 (−/−) mice were treated per oral gavage with AZ-3102-00 from post-natal day 11 (P11) to post-natal-day 70 (P70). Age-matched control mice included 6 NPC (−/−) and 4 NPC (+/−) mice treated with vehicle, and 4 NPC (+/+) mice received AZ-3102-00. After the last treatment on P70, NPC (−/−) mice (n=4 per timepoint) were euthanized by IP injection of 600 mg/kg pentobarbital at the following timepoints: 30 min, 1 h, 2 h, 4 h, 8 h, and 24 h. Control mice were also sacrificed after the last treatment (not time critical). Terminal blood was collected by heart puncture in EDTA coated tubes. Blood plasma was collected by centrifugation (3000×g for 10 minutes at room temperature) and 50 μL plasma aliquots were transferred to 1.5 mL tubes, frozen on dry ice and stored at −80° C.
as §1
After the last treatment on P70, NPC (−/−) mice (n=4 per timepoint; groups D to I) were euthanized by IP injection of 600 mg/kg pentobarbital a the following timepoints: 30 min, 1 h, 2 h, 4 h, 8 h, and 24 h. Control mice (groups A, B and C) were also sacrificed after the last treatment (not time critical).
At 30 min (Group D), 1 h (+/−5 min. Group E), 2 h (+/−5 min. Group F), 4 h (+/−5 min. Group G), 8 h (+/−5 min. Group H), and 24 h (+/−5 min. Group 1) (all time critical) after the last treatment on P70, mice were euthanized by i.p. injection.
(§2) Plasma samples were first mixed for protein precipitation with a solution of acetonitrile containing 50 ng/mL of AZ-3101 (internal standard). After 5 minutes incubation at room temperature, the samples were centrifuged for 5 minutes (13000 rpm, 4° C.) and the supernatant was diluted 10-fold in ultrapure water with 0.1% formic acid.
as §2, with “Brain tissues” for “Plasma samples”, “homogenized in a solution of ultrapure water:methanol (1:1) with 0.1% formic acid (4 mL for each gram of tissue) using a FastPrep 24™ Microtube homogenizer (MP Biomedicals, USA). Brain homogenates were” for “first”, “10” for “50”
Diluted plasma and brain tissue supernatants were injected into an Agilent LC system (Agilent, USA) by an automated sample injector (SIL-30, Shimadzu, USA). […] Data were calibrated and quantified using the Analyst™ data system (AB Sciex, version 1.6.3). […]

[5] = whole brain homogenates, daily oral dosing PND 11-70

- Kp ([4]; female, Female mice, read-out: Brain:Plasma Ratio AUC0-24): 1.37
- Kp ([4]; female, Female mice, read-out: Brain:Plasma Ratio Cmax): 0.41
- Kp ([4]; male, Male mice, read-out: Brain:Plasma Ratio AUC0-24): 0.95
- Kp ([4]; male, Male mice, read-out: Brain:Plasma Ratio Cmax): 0.26
Compound: OC[C@H]1[C@@H](O)[C@H](O)[C@@H](O)CN1CCCCCOCc1ccc(-c2ccccc2)c(F)c1 [AZ-3102]
- Clinical signs of diseased animals [1]: improved
- Levels of glucosylceramide C16:0 and C18:0 in the brain ([2]; repeat oral administration PND 11-70): increased levels
- Increase of GlcCer 16:0 compared to vehicle treated animals [2, 5]: greater than 2 fold
- Increase of GlcCer 18:0 compared to vehicle treated animals [2, 5]: approximately 9 fold
- Mice with a high level of tremor (score of 5) ([3]; NPC (−/−) mice treated P11-P70, observed PND 56-70, vehicle group 4 out of 5): 1 out of 24
- Initiation, duration and strength of tremor ([3]; NPC (−/−) mice, treated versus vehicle, PND 56-70): diminished
- Overall clinical signs ([3]; NPC (−/−) mice, treated versus vehicle): improved clinical signs
- Overall clinical signs ([3]; NPC (−/−) mice, treated versus vehicle, listed as Form 3): improve the clinical signs
